Measured values reported in BindingDB's records for doi:10.1016/j.bmcl.2012.07.091 (University of Copenhagen, 2012).

Molecular target: T1, Lysine-specific demethylase 4C (Homo sapiens, UniProt Q9H3R0)
T1 sequence (Q9H3R0 whole entry): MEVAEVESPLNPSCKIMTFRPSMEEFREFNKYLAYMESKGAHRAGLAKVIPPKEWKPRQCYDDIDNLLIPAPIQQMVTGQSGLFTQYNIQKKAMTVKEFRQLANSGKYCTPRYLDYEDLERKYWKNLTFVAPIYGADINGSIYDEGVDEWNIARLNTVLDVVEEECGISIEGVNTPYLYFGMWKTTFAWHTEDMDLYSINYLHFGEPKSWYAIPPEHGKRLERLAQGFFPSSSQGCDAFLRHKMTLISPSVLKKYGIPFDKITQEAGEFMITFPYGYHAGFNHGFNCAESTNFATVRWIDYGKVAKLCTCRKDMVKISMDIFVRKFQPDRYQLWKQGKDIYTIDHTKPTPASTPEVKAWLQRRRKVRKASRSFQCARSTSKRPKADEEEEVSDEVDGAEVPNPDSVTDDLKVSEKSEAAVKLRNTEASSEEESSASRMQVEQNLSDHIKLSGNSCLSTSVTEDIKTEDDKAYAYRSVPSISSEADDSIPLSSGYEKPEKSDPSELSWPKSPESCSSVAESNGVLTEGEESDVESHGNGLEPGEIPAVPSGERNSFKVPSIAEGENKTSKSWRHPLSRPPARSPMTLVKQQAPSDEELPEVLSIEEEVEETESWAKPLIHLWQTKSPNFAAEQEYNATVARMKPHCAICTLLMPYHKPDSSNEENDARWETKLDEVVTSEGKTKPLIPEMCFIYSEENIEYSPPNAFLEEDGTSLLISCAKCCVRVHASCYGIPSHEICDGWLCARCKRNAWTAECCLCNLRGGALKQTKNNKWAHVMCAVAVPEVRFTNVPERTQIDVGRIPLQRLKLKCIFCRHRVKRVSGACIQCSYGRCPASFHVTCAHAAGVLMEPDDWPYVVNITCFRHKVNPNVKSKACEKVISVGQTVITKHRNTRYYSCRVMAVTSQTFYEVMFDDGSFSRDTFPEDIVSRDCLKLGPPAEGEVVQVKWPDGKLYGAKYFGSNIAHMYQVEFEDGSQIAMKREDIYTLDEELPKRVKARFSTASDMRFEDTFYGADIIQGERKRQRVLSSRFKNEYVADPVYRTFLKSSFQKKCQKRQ
Assay: Inhibition of KDM4C catalytic core-mediated demethylation of ARK(Me)3STGGK after 30 mins by FDH-coupled assay

IC50 | Ki | SMILES
> 200 µM | > 200 µM | CNC(=O)c1n[nH]n(C)c1=O
> 200 µM | > 200 µM | OCC1C(Cl)N=NN1c1ccccc1 (stereo unspecified)
> 200 µM | > 200 µM | CN1CN(Cc2ccccc2)CC1=S
